Source: US20210214731A1, “METHODS FOR TREATING CANCER” (President and Fellows of Harvard College, priority 2019, published 2021)

What was measured:
MLL-AF9 AML [1] = assay: In vitro growth of MLL-AF9 AML; type: cell-based, mouse; conditions: for effect of inhibitor on in vitro growth of MLL-AF9 with MCT4-KO: combined with MCT4-KO versus control gRNA (FIG. 6D)
Description: Retroviral transduction model of MLL-AF9 or HoxA9-Meis1 AML were generated by infecting normal mouse GMP (Lin^−Kit^+Sca-1^−CD34^+CD16/32^+) (FASC antibodies summarized in Supplemental Table 4) by MSCV constructs. Infected cells were injected into normal C57BL/6J. Leukemic BM was harvested and expanded ex vivo in RPMI-1640 media supplemented with 10% FBS, 1% P/S, recombinant IL-3 (10 ng/ml) and SCF (100 ng/ml).

[2] = system: MCT4 expression in MLL-AF9 AML; assay: MCT4 mRNA (Q-PCR) and protein (Western blot) expression in MLL-AF9 AML upon inhibitor treatment; type: cell-based, mouse; conditions: MLL-AF9 AML in vitro (FIG. 9G)
Description: Cells were lyzed in 1×RIPA lysis buffer (Cell Signaling) with protease and phosphatase inhibitors. Cell lysate was centrifuged at 13000 rpm for 10 mins. Supernatant was collected and denatured in SDS-loading buffer with boiling for 10 mins. Cell lysates were separated, transferred and blotted with primary and horseradish peroxidase (HRP)-conjugated secondary antibodies (Supplemental Table 4). Hybridization signals were visualized with Amersham ECL Western blot detection reagents (GE Healthcare Amersham) or Luminata Forte Western HRP substrate (EMD Millipore) and captured by Hyperfilm™ ECL (GE Healthcare Amersham). Densitometric analysis of the bands was performed by ImageJ 1.8.0v.
(§1) Cell was washed twice with PBS and subjected to RNA purification using RNeasy Plus Mini Kit (Qiagen) according to the manufacturers' protocol. Extracted total RNA was then subjected to reverse transcription using SuperScript IV VILO Master Mix (Thermo Fisher Scientific) according to the manufacturers' protocol. Synthesized cDNA was then used for the Q-PCR using gene-specific primers (Supplemental Table 3) and SYBR™ Green PCR Master Mix. The reaction was run and analyzed by StepOnePlus Real-Time PCR System.

MLL-AF9 AML [3] = assay: Glycolysis and Mito stress analysis (Seahorse ECAR/OCR); type: cell-based, mouse; conditions: MLL-AF9 AML in vitro, LDHA inhibition (FIG. 6A)
Description: Glycolysis stress and Mito stress of normal Lin^− BM cells and AML were examined by Seahorse XF analyzer (Agilent) according to the manufacturers' protocol. In brief, the suspension cells were seeded onto a Cell-Tak (Corning) coated Seahorse XF Microplate in Seahorse XF Base Medium with appropriate supplement (Glycolysis Stress test: 1 mM glutamine; Mito stress test: 1 mM pyruvate, 2 mM glutamine and 10 mM glucose) and centrifuged at 200×g for 5 mins Different compounds were injected for the ECAR and OCR profiling (Glycolysis Stress test: 10 mM glucose, 1 μM Oligomycin and 50 mM 2DG; Mito Stress test: 1 μM Oligomycin, 0.5 μM FCCP and 0.5 μM Antimycin A). The data was eventually analyzed by Seahorse Wave Desktop 2.6 (Agilent).

MCT4 expression in THP-1 = assay: Q-PCR of MCT4 mRNA expression in THP-1; type: cell-based, human; conditions: THP-1 (FIG. 10G)
Excerpt: (§2) Human AML cell lines (K562, KG1, ML2, Kasumi-1, MOLM-13, MOLM-14, MV4-11, THP-1, MONO-MACE, HL-60, NB4, U937 and NOMO-1) were purchased from the American Type Culture Collection (ATCC) and cultured in RPMI-1640 media supplemented with 10% FBS and 1% penicillin/streptomycin (P/S).
as §1

[4] = system: MCT4 promoter in MLL-AF9 AML; assay: ChIP-PCR of enrichment on MCT4 promoter in MLL-AF9 AML; type: cell-based, mouse
Description: ChIP assays were performed in hematopoietic cells as previously described (Kim et al., 2008) using Pierce™ Protein G Agarose (Thermo Fisher Scientific). In brief, the cell suspension was fixed with 1% formaldehyde for 7 mins then neutralized by glycine. The fixed cell was washed with cold PBS. The cell pellet was then sonicated in SDS ChIP buffer. The supernatant was collected and pre-cleared with protein G agarose. After pre-clearing, a ChIP reaction using different antibodies (1:100, summarized in Supplemental Table 4) was added to the lysate and incubated at 4° C. overnight Immunoprecipitated complexes were successively washed with buffers and then eluted using SDS elution buffer at 65° C. overnight to reverse crosslink protein-DNA complex. The samples were treated with RNase A and Proteinase K, then extracted by phenol-chloroform isoamyl alcohol and precipitated. Finally, the pellet was resuspended in 20 μl TE buffer.
The DNA was then subjected to Q-PCR analysis using specific primers (Supplemental Table 3) and SYBR™ Green PCR Master Mix (Thermo Fisher Scientific). Input genomic DNA was used for the reference sample. The reaction was run and analyzed by StepOnePlus Real-Time PCR System (Thermo Fisher Scientific). Mouse or human Gfi1b was included as a negative control.

[5] = system: MCT4 expression in NOMO-1; assay: Q-PCR of MCT4 mRNA expression in NOMO-1; type: cell-based, human; conditions: NOMO-1 (FIG. 10G)
Excerpt: as §2, §1

THP-1 = assay: In vitro growth of THP-1; type: cell-based, human; conditions: THP-1 (FIG. 10H)
Excerpt: as §2

NOMO-1 = assay: In vitro growth of NOMO-1; type: cell-based, human; conditions: NOMO-1 (FIG. 10H)
Excerpt: as §2

SMILES: O=CC[C@@H](O)[C@H](O)[C@H](O)CO [2DG, 2-deoxyglucose]
- effect of inhibitor on in vitro growth of MLL-AF9 with MCT4-KO (MLL-AF9 AML [1]): increased the effect

SMILES: NC(=O)c1ccc(N)nc1 [6AN, 6-aminonicotinamide]
- effect of inhibitor on in vitro growth of MLL-AF9 with MCT4-KO (MLL-AF9 AML [1]): increased the effect

SMILES: CC(C)N(C[C@H]1O[C@@H](n2cnc3c(N)ncnc32)[C@H](O)[C@@H]1O)[C@H]1C[C@@H](CCc2nc3cc(C(C)(C)C)ccc3[nH]2)C1 [EPZ-5676]
- MCT4 expression [2]: not seen

SMILES: CCCc1c(O)c(O)c(C(=O)O)c2cc(Cc3ccccc3)c(C)cc12 [FX11]
- extracellular acidification rate (ECAR) (MLL-AF9 AML [3]): decreased
- oxygen consumption rate (OCR) (MLL-AF9 AML [3]): increased

SMILES: Cc1sc2c(c1C)C(c1ccc(Cl)cc1)=N[C@@H](CC(=O)OC(C)(C)C)c1nnc(C)n1-2 [JQ-1]
- MCT4 expression [2]: suppressed
- expression of MCT4 (MCT4 expression in THP-1): suppressed
- BRD4 enrichment on the MCT4 promoter ([4]; mouse MLL-AF9 AML (FIG. 9I)): reduced
- H3K27ac enrichment on the MCT4 promoter ([4]; mouse MLL-AF9 AML (FIG. 9J)): reduced
- expression of MCT4 [5]: suppressed
- growth (THP-1): suppressed
- growth (NOMO-1): suppressed
- growth of MLL-AF9 AML (MLL-AF9 AML [1]; JQ-1 treatment (FIG. 9H)): reduced the growth of MLL-AF9 AML in dose dependent manner
